# US20030083339A1, “Compositions and methods for treating colorectal polyps and cancer” (priority 2001, published 2003)
# Marks after values point to notes of the source that are not given here.
# T1: AT2 receptor (Mus musculus, UniProt P35374)
# T1 sequence (P35374 1-363): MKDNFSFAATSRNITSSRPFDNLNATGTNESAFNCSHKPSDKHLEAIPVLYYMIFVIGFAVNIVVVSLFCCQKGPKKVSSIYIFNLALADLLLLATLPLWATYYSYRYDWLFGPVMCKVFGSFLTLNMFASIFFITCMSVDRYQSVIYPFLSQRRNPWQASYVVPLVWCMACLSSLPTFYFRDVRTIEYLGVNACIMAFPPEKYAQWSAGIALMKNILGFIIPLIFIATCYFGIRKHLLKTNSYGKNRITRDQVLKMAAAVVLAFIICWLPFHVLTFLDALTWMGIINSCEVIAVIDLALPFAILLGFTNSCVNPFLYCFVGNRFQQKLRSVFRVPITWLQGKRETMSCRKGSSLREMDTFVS
# T2: mouse angiotensin II type 2 receptor (mouse, UniProt P35374 1-363)
# T2 construct: Native receptor in mouse tissue (liver and colon plasma membranes, liver nuclei), not a recombinant construct; also called AT2 receptor; AT2
# T2 sequence: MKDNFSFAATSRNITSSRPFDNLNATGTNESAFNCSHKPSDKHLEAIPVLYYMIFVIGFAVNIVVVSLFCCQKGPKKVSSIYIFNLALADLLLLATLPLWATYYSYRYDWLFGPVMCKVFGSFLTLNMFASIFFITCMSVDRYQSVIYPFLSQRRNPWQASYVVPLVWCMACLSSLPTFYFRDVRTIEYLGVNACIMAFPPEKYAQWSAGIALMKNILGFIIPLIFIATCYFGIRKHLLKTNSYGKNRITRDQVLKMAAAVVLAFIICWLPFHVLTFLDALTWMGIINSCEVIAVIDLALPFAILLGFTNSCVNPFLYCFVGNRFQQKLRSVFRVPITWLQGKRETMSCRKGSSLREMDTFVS
# Experiments:
# [1] = tested on: colon tumors; assay: AOM-induced colon tumors in mouse strain crossbred from 129/Ola and C57BL/6J (Table 3); type: in vivo; conditions: 23 weeks; for Body Weight / Colon Tumors Multiplicity = average number of tumors/mouse / Colon Tumors Prevalence (%) = percent of tumor-bearing mice / Colon Tumors Total Number: AOM 10 mg/kg I.P. 4 consecutive weeks
# Method: The colons and livers were macroscopically examined. […] Tumor size was measured with a caliper. […] In addition, the size of the tumors in wild type mice was large (over 55% of tumors 22 mm^3). The tumors were predominantly observed in the lower half of the descending colon.
# [2] = tested on: colon tumors; assay: AOM-induced colon tumors in F2 mice crossbred with SWR/J (Table 4); type: in vivo, mouse; conditions: AOM 10 mg/kg I.P. 4 consecutive weeks, 26 weeks
# Method: . […] The colons and livers were macroscopically examined. […] Tumor size was measured with a caliper.
# In Example 2, clear-cut results were obtained that the AT2 receptor is involved in AOM-induced colon cancer. A concern was that this might be true only in the mouse strain crossbred from 129/OIa and C57BL/6J mouse strains. In order to overcome this problem, the AT2-KO mice in this crossbred strain were back-crossed with SWR/J mice, whose susceptibility to AOM is established. During the course of back-crossing, similar experiments were performed as described in Example 1, using F2 male wild and AT2-KO mice.
# [3] = tested on: cytochrome P450 proteins (CYP1A1, 1A2 and 2E1) in liver; assay: inducibility of CYP1A1, 1A2 and 2E1 in the liver after AOM; type: in vivo, mouse; conditions: AOM 15 mg/kg bolus I.P.
# From the text: Anti-rabbit anti-human CYP1A1/1A2 and CYP2E1 antisera were obtained from Dr. F. P. Guengerich, Department of Biochemistry, Vanderbilt University. See Soucek et al., (1995) Biochem. 34:16013-16021; Shimada et al., (1992) Mol. Pharmacol. 41:856-864. The cross-reactivities of these antibodies to mouse CYP1A1/1A2 and 2E1 have been characterized.
# The inducibilities of CYP1A1, 1A2 and 2E1 in the liver were exaimed.
# [4] = tested on: O^6-methylguanine adduct in colon DNA; assay: colonic O^6-methylguanine adduct level after AOM, immuno-slot-blot
# Method: AT2 receptor blocker PD123319 treatment (15 mg/kg/12 h, gavage administration and 50 μg/ml in drinking tap water) was initiated 3 h prior to the AOM treatment. The control group for the AOM treatment received saline. Mice for the short term study were sacrificed 6 h or 24 h after AOM treatment.
# Immediately after the mice were sacrificed by cervical dislocation, the colon was excised, washed with phosphate-buffered saline, divided into proximal and distal segments, and snap-frozen in liquid N2. Small portions of each lobe of the liver were also removed and frozen in the same manner. Tissue was digested in a lysis buffer consisting of 10 mM Tris-HCl, pH 7.4, 1 mM EDTA, 1% SDS, 5× SSC and 0.2 mg/ml Proteinase K. DNA was extracted by phenol/chloroform/isoamyl alcohol and precipitated with ice-cold ethanol by standard protocols. Samples were then treated with RNase A (50 mg/ml) and DNA was fragmented by sonication. The concentration of DNA was determined by the absorbance at 260 nm.
# DNA samples were heat-denatured for 10 min, immediately chilled on ice, and mixed with an equal volume of 2 M ammonium acetate. […] Relative blot intensities were measured by densitometry using a Fluor-S image analyzer (Bio-Rad Laboratories, Inc., Hercules, Calif., United States of America).
# [5] = tested on: hepatic CYP2E1; assay: hepatic CYP2E1 protein expression after AOM, Western blot of liver microsomes
# Method: AT2 receptor antagonist PD123,319 treatment (15 mg/kg/12 h, gavage administration, and 50 μg/ml in drinking tap water) was initiated 3 h prior to the AOM treatment. The liver was dissected out and the microsomal fractions were subjected to SDS-polyacrylamide gel electrophoresis followed by immunoblotting with anti-human CYP2E1 antibodies.
# AT2 receptor blocker PD123319 treatment (15 mg/kg/12 h, gavage administration and 50 μg/ml in drinking tap water) was initiated 3 h prior to the AOM treatment. The control group for the AOM treatment received saline. Mice for the short term study were sacrificed 6 h or 24 h after AOM treatment. […] The remaining tissues were frozen in liquid nitrogen and stored at −80° C.
# Tissues were individually homogenized by a Polytron homogenizer in three volumes of 1 mM Tris-HCl buffer, pH 7.5, containing 1 mM EDTA, 0.25 M sucrose and protease inhibitor cocktail. The supernatant from 10,000× g centrifugation of the homogenate for 15 min was further centrifuged at 100,000× g for 1 h. The microsomal membranes were suspended in 100 mM NaH2PO4, pH 7.4, 10 mM MgCl2, 20% glycerol, and protease inhibitor cocktail, and 25 μg of the membrane protein was subjected to Western blot analysis.
# The liver microsomal membranes were lysed with 0.5 ml lysis buffer (10 mM Tris-HCl (pH 7.4), 1% SDS). After sonication, the lysate was boiled for 5 min. […]
# [6] = tested on: colon polyp or adenocarcinoma; assay: Example 1: course of oral PD123319 treatment of colon polyps and colorectal adenocarcinoma; type: in vivo
# Method: PD123319, an angiotensin II receptor (AT2 receptor) antagonist, is available in 1-mg, 10-mg, 50-mg, 100-mg, 250 mg, 500 mg, and 1000 mg tablets for oral administration and in 1-mg, 10-mg, 50-mg, 100-mg, 500 mg, 1000 mg, 5000 mg, and 10,000 mg suppositories for rectal administration.
# PD123319 is indicated for the treatment of colorectal cancer including non-malignant polyps of the colon and colorectal adenocarcinoma. There are no known contradictions to treatment with PD123319.
# A 12-20 week course of therapy yields a remission of adenocarcinoma (e.g., tumor number and/or volume) in greater than 79% of individuals that are diagnosed with at least one adenocarcinoma. Total dose per day is determined by severity (number and/or cancer stage) as assessed by a treating veterinarian or physician. A preferred course of treatment for a patient with colorectal polyps is 10-30 mg (medication) per kg (body weight) per day. A preferred course of treatment for a patient with colorectal adenocarcinoma is 20-30 mg/kg/day. In certain cases, a course of treatment for a patient with colorectal adenocarcinoma is 100 mg/kg/day administered orally or as a suppository. A preferred maintenance or chemoinhibitory course of therapy is typically 1.0 to 10 mg/kg. […]
# [7] = target: T1, AT2 receptor; conditions: read-out: IC50 for the inhibition of ligand-receptor binding; cited from earlier work
# [8] = chronic administration, 30 mg/kg/day, rats; cited from earlier work
# [9] = daily administration of the pressor dose (10-50 mg/kg/day), man and animals; cited from earlier work
# [10] = target: T2, mouse angiotensin II type 2 receptor; assay: radioligand-receptor binding on mouse liver and colon plasma membranes
# [11] = AOM 10 mg/kg bolus I.P., both wild type and AT2-null mice
molecule,measurement,setting,value
"CN=[N+](C)[O-] [AOM, azoxymethane]",Body Weight,[1]; AT2-KO mice,36.5 ± 1.6 g
same,Colon Tumors Multiplicity = average number of tumors/mouse,[1]; AT2-KO mice,0.11
same,Colon Tumors Prevalence (%) = percent of tumor-bearing mice,[1]; AT2-KO mice,11.1%
same,Colon Tumors Total Number,[1]; AT2-KO mice,1
same,Body Weight,[1]; Control (wild type) mice,36.5 ± 4.3 g
same,Colon Tumors Multiplicity = average number of tumors/mouse,[1]; Control (wild type) mice,7.38
same,Colon Tumors Prevalence (%) = percent of tumor-bearing mice,[1]; Control (wild type) mice,100%
same,Colon Tumors Total Number,[1]; Control (wild type) mice,59
same,share of tumors 22 mm^3 (large tumors),"[1]; wild type mice, AOM 10 mg/kg I.P. 4 weekly",over 55%
same,Colon Tumors Multiplicity,[2]; AT2-KO F2 male mice,6.3
same,Colon Tumors Prevalence (%),[2]; AT2-KO F2 male mice,100.0%
same,Colon Tumors Total Number,[2]; AT2-KO F2 male mice,50
same,Colon Tumors Volume (mm^3) = total tumor volume/number of tumors,[2]; AT2-KO F2 male mice,19.8 ± 3.0 mm^3
same,Colon Tumors Multiplicity,[2]; Control (wild) F2 male mice,12.0
same,Colon Tumors Prevalence (%),[2]; Control (wild) F2 male mice,100.0%
same,Colon Tumors Total Number,[2]; Control (wild) F2 male mice,96
same,Colon Tumors Volume (mm^3) = total tumor volume/number of tumors,[2]; Control (wild) F2 male mice,36.8 ± 3.2* mm^3
same,effect on hepatic cytochrome P450 levels,"[3]; AT2-KO mice, 24 h after injection",decreased substantially
same,effect on levels of cytochrome P450 proteins in liver,[3]; wild type mouse liver,significantly increased
same,effect on colonic O^6-methylguanine levels,[4]; [11],time-dependently increased
same,effect on CYP2E1 protein expression in liver,[5]; [11],significantly downregulated
Cc1cc(Cn2cnc3c2C[C@@H](C(=O)O)N(C(=O)C(c2ccccc2)c2ccccc2)C3)ccc1N(C)C [PD123319],colon polyp or adenocarcinoma number as determined by endoscopy,"[6]; 4-8 week course, oral administration",significant reduction
same,remission of adenocarcinoma (tumor number and/or volume),"[6]; 12-20 week course of therapy, individuals diagnosed with at least one adenocarcinoma",greater than 79 % of individuals
same,IC50,[7],10 nM
same,adverse effects,[8],does not show any adverse effects
same,effect on AOM-induced increase in the colonic O^6-methylguanine level,"[4]; wild type mice, 15 mg/kg/12h by gavage and 0.35 mg/kg/h in drinking water, 24 h after AOM 10 mg/kg",markedly attenuated
same,effect on AOM-induced CYP2E1 downregulation in the liver,"[5]; wild type mice, pretreatment 15 mg/kg/12 h by gavage and 0.35 mg/kg/h in drinking water, AOM 10 mg/kg I.P., 24 h",significantly attenuated
CCCCc1nc(Cl)c(CO)n1Cc1ccc(-c2ccccc2-c2nn[nH]n2)cc1 [losartan],side effects,[9],no serious side effects
"XRVYIHPI (sarcosine at position 1 in place of Asp; 125I label, X stands for sarcosine) [[^125I]Sar^1·Ile^8·Ang II]",binding result,[10],binds
